Measured values from patent publication US11447460B2, “Compounds and compositions for treating conditions associated with NLRP activity” (Novartis AG, priority 2016, dated 2022).

The compounds below were run on IL-1β production in PMA-differentiated THP-1 cells (assay: IL-1β production in PMA-differentiated THP-1 cells stimulated with gramicidin (hTHP-1 assay, 2% bovine serum; Bioassays 1 and 2)). Details: Homo sapiens, THP-1; hTHP-1 assay containing 2% bovine serum; Table 12, by Example #; read-out: Average IC50 of compounds in hTHP-1 assay.
Type: cell-based, human
Method: IL-1β Production in PMA-Differentiated THP-1 Cells Stimulated with Gramicidin.
Cell culture-THP-1 cells were purchased from the American Type Culture Collection and sub-cultured according to instructions from the supplier. Prior to experiments, cells were cultured in RPMI 1640 containing 10% heat inactivated FBS, penicillin (100 units/ml) and streptomycin (100 μg/ml), and maintained in log phase prior to experimental setup. Prior to the experiment THP-1 were treated with PMA (Phorbol 12-myristate 13-acetate) (10 μg/ml) for 24 hours. The day of the experiment the media was removed and attaching cells were treated with trypsin for 2 minutes, cells were then collected, washed with PBS (phosphate buffer saline), spin down, resuspended in 2% heat inactivated FBS with RPMI at a concentration of 1×10^6 cells/ml, and 100 ul was plated in a 96 well plate. Cells were incubated with compounds for 1 hours and then stimulated with Gramicidin (5 μM) (Enzo) for 2 hours. Cell free supernatant was collected and the production of IL-1β was evaluated by ELISA. Compounds were dissolved in dimethyl sulfoxide (DMSO) and added to the culture medium to achieve desired concentration (e.g. 100, 30, 10, 3, 1, 0.3 or 0.1 μM). A vehicle only control was run concurrently with each experiment. Final DMSO concentration was 1%.
THP-1 cells were purchased from the American Type Culture Collection and sub-cultured according to instructions from the supplier. Prior to experiments, cells were cultured in complete RPMI 1640 (containing 10% heat inactivated FBS, penicillin (100 units/ml) and streptomycin (100 μg/ml)), and maintained in log phase prior to experimental setup. Prior to the experiment THP-1 were treated with PMA (Phorbol 12-myristate 13-acetate) (20 ng/ml) for 16-18 hours. On the day of the experiment the media was removed and adherent cells were detached with trypsin for 5 minutes. Cells were then harvested, washed with complete RPMI 1640, spun down, resuspended in RPMI 1640 (containing 2% heat inactivated FBS, penicillin (100 units/ml) and streptomycin (100 μg/ml). The cells were plated in a 384-well plate at a density of 50,000 cells/well (final assay volume 50 μl). Compounds were dissolved in dimethyl sulfoxide (DMSO) and added to the culture medium to achieve desired concentration (e.g. 100, 33, 11, 3.7, 1.2, 0.41, 0.14, 0.046, 0.015, 0.0051, 0.0017 μM). Cells were incubated with compounds for 1 hour and then stimulated with gramicidin (5 μM) (Enzo) for 2 hours. Cell free supernatant was collected and the production of IL-10 was evaluated by HTRF (cisbio). A vehicle only control was run concurrently with each experiment. Final DMSO concentration was 0.38%.
Compounds tested with protocols 1 and 2 provided IC50 values that are within the variability of the assay.
Tables 12 and 13 show the biological activity of compounds in hTHP-1 assay containing 2% bovine serum: <1 μM=“++++”; ≥1 and <5 μM=“+++”; ≥5 and <15 μM=“++”; ≥15 and <60 μM=“+”.
CC(C)c1cc(F)cc(C(C)C)c1CC(=O)NS(=O)(=O)c1cccc(S(C)(=O)=O)c1 [Example 59, 2-(4-fluoro-2,6-diisopropylphenyl)-N-(3-(methylsulfonyl)phenylsulfonyl)acetamide] was tested, and the IC50 was 15 to 60 µM. With CC(C)c1cc(F)cc(C(C)C)c1CC(=O)NS(=O)(=O)c1cccc(C(C)(C)O)c1 [Example 25, 2-(4-fluoro-2,6-diisopropylphenyl)-N-(3-(2-hydroxypropan-2-yl)phenylsulfonyl)acetamide] the IC50 was 1 to 5 µM. Work on CC(C)c1cc(C#N)cc(C(C)C)c1CC(=O)NS(=O)(=O)c1nc(C(C)(C)O)cs1 [Example 82, 2-(4-cyano-2,6-diisopropylphenyl)-N-(4-(2-hydroxypropan-2-yl)thiazol-2-ylsulfonyl)acetamide] yielded an IC50 of 15 to 60 µM. In the case of CC(C)c1cc(F)cc(C(C)C)c1CC(=O)NS(=O)(=O)c1cc(C(C)(C)O)cc(C(C)(C)O)c1 [Example 30, N-(3,5-bis(2-hydroxypropan-2-yl)phenylsulfonyl)-2-(4-fluoro-2,6-diisopropylphenyl)acetamide], the IC50 is reported as 5 to 15 µM. CC(C)c1cc(C#N)cc(C(C)C)c1CC(=O)NS(=O)(=O)c1cc(C2(O)CC2)cs1 [Example 16, 2-(4-cyano-2,6-diisopropylphenyl)-N-(4-(1-hydroxycyclopropyl)thiophen-2-ylsulfonyl)acetamide] was tested, and the IC50 was less than 1 µM. With CC(C)c1cc(C#N)cc(C(C)C)c1CC(=O)NS(=O)(=O)c1cc(C(C)(C)O)n(C)n1 [Example 68, 2-(4-cyano-2,6-diisopropylphenyl)-N-(5-(2-hydroxypropan-2-yl)-1-methyl1H-pyrazol-3-ylsulfonyl)acetamide] the IC50 was 5 to 15 µM. Work on CC(C)(O)c1cnc(S(=O)(=O)NC(=O)Cc2cc(C(F)(F)F)ccc2Cl)s1 [Example 87, 2-(2-chloro-5-(trifluoromethyl)phenyl)-N-(5-(2-hydroxypropan-2-yl)thiazol-2-ylsulfonyl)acetamide] yielded an IC50 of 15 to 60 µM. In the case of CC(C)c1cccc(C(C)C)c1CC(=O)NS(=O)(=O)c1ncc(C(C)(C)O)s1 [Example 2, 2-(2,6-Diisopropylphenyl)-N-(5-(2-hydroxypropan-2-yl)thiazol-2-ylsulfonyl)acetamide], the IC50 is reported as 1 to 5 µM. Compound CC(C)c1cccc(C(C)C)c1CC(=O)NS(=O)(=O)c1cc(C(C)(C)O)cc(C(C)(C)O)c1 [Example 24, N-(3,5-bis(2-hydroxypropan-2-yl)phenylsulfonyl)-2-(2,6-diisopropylphenyl)acetamide] has an IC50 of 15 to 60 µM. In the case of CC(C)c1cc(F)cc(C(C)C)c1CC(=O)NS(=O)(=O)c1cc(C2(O)CC2)cs1 [Example 15, 2-(4-fluoro-2,6-diisopropylphenyl)-N-(4-(1-hydroxycyclopropyl)thiophen-2-ylsulfonyl)acetamide], the IC50 is reported as 1 to 5 µM. With CC(C)c1cc(F)cc(C(C)C)c1CC(=O)NS(=O)(=O)c1ccc(C(C)(C)O)cc1F [Example 54, 2-(4-fluoro-2,6-diisopropylphenyl)-N-(2-fluoro-4-(2-hydroxypropan-2-yl)phenylsulfonyl)acetamide] the IC50 was less than 1 µM. In the case of CC(C)c1cc(C#N)cc(C(C)C)c1CC(=O)NS(=O)(=O)c1cccc(C(C)(C)O)c1 [Example 26, 2-(4-cyano-2,6-diisopropylphenyl)-N-(3-(2-hydroxypropan-2-yl)phenylsulfonyl)acetamide], the IC50 is reported as 1 to 5 µM. For CC(C)c1cccc(C(C)C)c1CC(=O)NS(=O)(=O)c1cc(C(C)(C)O)n(C)n1 [Example 66, 2-(2,6-diisopropylphenyl)-N-(5-(2-hydroxypropan-2-yl)-1-methyl-1H-pyrazol-3-ylsulfonyl)acetamide], the IC50 was 15 to 60 µM. COC(C)(C)c1cnc(S(=O)(=O)NC(=O)Cc2c(C(C)C)cc(F)cc2C(C)C)s1 [Example 73, 2-(4-fluoro-2,6-diisopropylphenyl)-N-(5-(2-methoxypropan-2-yl)thiazol-2-ylsulfonyl)acetamide] gave an IC50 of 1 to 5 µM.

Same assay, conditions: hTHP-1 assay containing 2% bovine serum; Table 12, by Example #; read-out: Average IC50 of compounds in hTHP-1 assay
Compound CC(=O)c1ccc(F)c(S(=O)(=O)NC(=O)Cc2c(C(C)C)cc(F)cc2C(C)C)c1 [Example 55] has an IC50 of 1 to 5 µM.
